Results on five compounds are retold here after patent publication US6376584B1, “Hydroxy-substituted N-alkoxy hindered amines and compositions stabilized therewith” (Ciba Specialty Chemicals Corporation, priority 1999, dated 2002).

Like-named read-outs stand apart in the source and are kept apart here.

This data set is described as follows: pKa values by non-aqueous titration (half neutralization potential). The class given is physicochemical. The settings on record: for HPN: 1:1 acetonitrile:chloroform, 0.1N perchloric acid/dioxane titrant. The procedure:
In order to determine the pKa values of water insoluble materials, organic references with known pKa values in water are titrated non-aqueously. A plot of the half neutralization potential (HNP) versus the known aqueous pKa value of the reference material is established. The HNP of the test material is determined and extrapolated to find the corresponding pKa value of the test material. Such organic reference materials include 2,2,6,6-tetrarnethylpiperidine; 4-hydroxy-2,2,6,6-tetramethylpiperidine; 1-hydroxyethyl-4-hydroxy-2,2,6,6-tetramethylpiperidine; triacetoneamine and N-methylaniline.
The reference materials, which are structurally at least peripherally related to the instant test materials and are soluble in both water and 1:1 acetonitrile:chloroform, are used to make a calibration plot in the non-aqueous titration (1:1 acetonitrile:chloroform solvent and 0.1N perchloric acid/dioxane titrant) system. Approximately 0.5 milliequivalents of test material is weighed into a titration beaker. Thirty mL of acetonitrile is added to dissolve the sample. Prior to titration, 30 mL of chloroform is added. Titration is carried out and the HNP is determined. The electrolyte for the reference electrode is 2-(aminomethylpyridine. The electrode is allowed to stand in the solvent system for two hours after filling with the electrolyte to achieve equilibration. All samples are run in duplicate. The pKa values are seen in the table below.

Where [1] appears, read: extrapolated from HNP versus known aqueous pKa of reference materials, read-out: Calculated pKa.
Setting [2] is: pKa of the test hindered amine contained in the formulation, read-out: HALS pKa.
[3] abbreviates: extrapolated from HNP versus known aqueous pKa of reference materials.

In turn, `CCCCCCCCCCCCCCCCCC(=O)OC1CC(C)(C)N(OCC(C)(C)O)C(C)(C)C1` [Example 73, 1-(2-Hydroxy-2-methylpropoxy)-4-octadecanoyloxy-2,2,6,6-tetramethylpiperidine] came in with an HPN of 523 mv. Besides, the pKa under setting [1] was 3.9. Moreover, under setting [2], the pKa worked out at 4.

In the case of `CCCCCCCCON1C(C)(C)CC(OC(=O)CCCCCCCCC(=O)OC2CC(C)(C)N(OCCCCCCCC)C(C)(C)C2)CC1(C)C` [TINUVIN® 123, bis(1-octyloxy-2,2,6,6-tetramethylpiperidin-4-yl) sebacate], the pKa is, setting by setting: under setting [1], 4.6; under setting [2], 4.6.

`CC(C)(O)CON1C(C)(C)CC(OC(=O)CCCCCCCCC(=O)OC2CC(C)(C)N(OCC(C)(C)O)C(C)(C)C2)CC1(C)C` [Example 2] showed an HPN of 513 mv. Moreover, under setting [3], the “Calculated pKa” value is recorded as 3.8.

As for `CCCCCCCCCCCCCCCCCC(=O)OC1CC(C)(C)N(OC2CCCCC2)C(C)(C)C1` [II, 1-cyclohexyloxy-4-ocatadecanoyloxy-2,2,6,6-tetramethylpiperidine], the HPN worked out at 436 mv. For the same compound, under setting [3], the “Calculated pKa” value is 4.9.

For the compound `CC1(C)CC(OC(=O)CCCCCCCCC(=O)OC2CC(C)(C)NC(C)(C)C2)CC(C)(C)N1` [TINUVIN® 770, bis(2,2,6,6-tetramethylpiperidin-4-yl) sebacate], under setting [2], the pKa is 9.1.

A word on the pKa: it is the pH at which an ionisable group is half protonated.
